Where a name gives a salt, the structure may show the parent alone.
Tested on: behaviors of compound-treated mice
Assay: Neuropharmacological Assay (SmartCube)
Format: in vivo
Conditions: for minimal effective dose: Mus musculus, ip, 0.25 h, dose having 50% or more total activity in SmartCube, i.p., read-out: MED (minimal effective dose); for AD: ADHD (probability that activity matches class) / AG: analgesic (probability that activity matches class) / AX: anxiolytic (probability that activity matches class) / CE: cognitive enhancer (probability that activity matches class) / DP: anti-depressant (probability that activity matches class) / MS: mood stabilizer (probability that activity matches class) / PS: anti-psychotic (probability that activity matches class) / SD: sedative hypnotic (probability that activity matches class) / UN: uncharacterized CNS activity (probability that activity matches class): i.p. 15 min before behavioral test, most efficacious dose(s) of 3 doses
Procedure, shortened: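 Behavioral signatures were captured automatically by video, and each drug class received a probability for the best of three i.p. doses given 15 min pre-test (vehicle: Pharmasolve/PEG/propylene glycol). Potency is given as MED, the lowest mpk dose (typically 0.3–30) reaching 50% or more total activity.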

SMILES	minimal effective dose	AD: ADHD (probability that activity matches class)	AG: analgesic (probability that activity matches class)	AX: anxiolytic (probability that activity matches class)	CE: cognitive enhancer (probability that activity matches class)	DP: anti-depressant (probability that activity matches class)	MS: mood stabilizer (probability that activity matches class)	PS: anti-psychotic (probability that activity matches class)	SD: sedative hypnotic (probability that activity matches class)	UN: uncharacterized CNS activity (probability that activity matches class)
CNC[C@@H]1OCCc2c(-c3ccncn3)cccc21 (single isomer, unassigned) [Compound 72, hydrochloride salt]	> 30 mg/kg	+ (LOQ ≤ + <5%)	+ (LOQ ≤ + <5%)	+ (LOQ ≤ + <5%)	+ (LOQ ≤ + <5%)	+ (LOQ ≤ + <5%)	+ (LOQ ≤ + <5%)	+ (LOQ ≤ + <5%)	+ (LOQ ≤ + <5%)	+ (LOQ ≤ + <5%)
CNC[C@H]1OCCc2c(-c3ccncn3)cccc21 (single isomer, unassigned) [Compound 73, hydrochloride salt]	3 to 10 mg/kg	+ (LOQ ≤ + <5%)	+ (LOQ ≤ + <5%)	++ (5% ≤ ++ <25%)	+ (LOQ ≤ + <5%)	++++ (50% ≤ ++++)	+ (LOQ ≤ + <5%)	+ (LOQ ≤ + <5%)	+ (LOQ ≤ + <5%)	+ (LOQ ≤ + <5%)
NC[C@@H]1OCCc2c(-c3ccncn3)cccc21 (single isomer, unassigned) [Compound 74, hydrochloride salt]	> 30 mg/kg	+ (LOQ ≤ + <5%)	+ (LOQ ≤ + <5%)	+ (LOQ ≤ + <5%)	+ (LOQ ≤ + <5%)	++ (5% ≤ ++ <25%)	+ (LOQ ≤ + <5%)	+ (LOQ ≤ + <5%)	+ (LOQ ≤ + <5%)	+ (LOQ ≤ + <5%)
NC[C@H]1OCCc2c(-c3ccncn3)cccc21 (single isomer, unassigned) [Compound 75, hydrochloride salt]	3 to 10 mg/kg	+ (LOQ ≤ + <5%)	+ (LOQ ≤ + <5%)	++ (5% ≤ ++ <25%)	+ (LOQ ≤ + <5%)	++++ (50% ≤ ++++)	+ (LOQ ≤ + <5%)	+ (LOQ ≤ + <5%)	+ (LOQ ≤ + <5%)	++ (5% ≤ ++ <25%)
CNC[C@@H]1OCCc2c(-c3ccnnc3)cccc21 (single isomer, unassigned) [Compound 76, hydrochloride salt]	3 to 10 mg/kg	+ (LOQ ≤ + <5%)	++ (5% ≤ ++ <25%)	++ (5% ≤ ++ <25%)	+ (LOQ ≤ + <5%)	+ (LOQ ≤ + <5%)	+ (LOQ ≤ + <5%)	+ (LOQ ≤ + <5%)	+ (LOQ ≤ + <5%)	+ (LOQ ≤ + <5%)
CNC[C@H]1OCCc2c(-c3ccnnc3)cccc21 (single isomer, unassigned) [Compound 77, hydrochloride salt]	≤ 3 mg/kg	+ (LOQ ≤ + <5%)	+ (LOQ ≤ + <5%)	++ (5% ≤ ++ <25%)	+ (LOQ ≤ + <5%)	++++ (50% ≤ ++++)	+ (LOQ ≤ + <5%)	+ (LOQ ≤ + <5%)	+ (LOQ ≤ + <5%)	+ (LOQ ≤ + <5%)
NC[C@@H]1OCCc2c(-c3ccnnc3)cccc21 (single isomer, unassigned) [Compound 78, hydrochloride salt]	3 to 10 mg/kg	+ (LOQ ≤ + <5%)	+ (LOQ ≤ + <5%)	++ (5% ≤ ++ <25%)	+ (LOQ ≤ + <5%)	+ (LOQ ≤ + <5%)	+ (LOQ ≤ + <5%)	+ (LOQ ≤ + <5%)	+ (LOQ ≤ + <5%)	+ (LOQ ≤ + <5%)
NC[C@H]1OCCc2c(-c3ccnnc3)cccc21 (single isomer, unassigned) [Compound 79, hydrochloride salt]	3 to 10 mg/kg	+ (LOQ ≤ + <5%)	+ (LOQ ≤ + <5%)	+ (LOQ ≤ + <5%)	+ (LOQ ≤ + <5%)	++ (5% ≤ ++ <25%)	+ (LOQ ≤ + <5%)	+ (LOQ ≤ + <5%)	+ (LOQ ≤ + <5%)	+ (LOQ ≤ + <5%)
CNC[C@@H]1OCCc2c(-c3cnccn3)cccc21 (single isomer, unassigned) [Compound 80]	3 to 10 mg/kg	+ (LOQ ≤ + <5%)	+ (LOQ ≤ + <5%)	++ (5% ≤ ++ <25%)	+ (LOQ ≤ + <5%)	+ (LOQ ≤ + <5%)	+ (LOQ ≤ + <5%)	+ (LOQ ≤ + <5%)	+ (LOQ ≤ + <5%)	+ (LOQ ≤ + <5%)
NC[C@@H]1OCCc2c(-c3cnccn3)cccc21 (single isomer, unassigned) [Compound 82, hydrochloride salt]	10 to 30 mg/kg	+ (LOQ ≤ + <5%)	+ (LOQ ≤ + <5%)	++ (5% ≤ ++ <25%)	+ (LOQ ≤ + <5%)	+ (LOQ ≤ + <5%)	+ (LOQ ≤ + <5%)	+ (LOQ ≤ + <5%)	+ (LOQ ≤ + <5%)	+ (LOQ ≤ + <5%)
NC[C@H]1OCCc2c(-c3cnccn3)cccc21 (single isomer, unassigned) [Compound 83, hydrochloride salt]	3 to 10 mg/kg	++ (5% ≤ ++ <25%)	+ (LOQ ≤ + <5%)	++ (5% ≤ ++ <25%)	+ (LOQ ≤ + <5%)	++++ (50% ≤ ++++)	+ (LOQ ≤ + <5%)	+ (LOQ ≤ + <5%)	+ (LOQ ≤ + <5%)	+ (LOQ ≤ + <5%)

Reference: US10780074B2, “Compounds and uses thereof” (Sunovion Pharmaceuticals Inc., priority 2017, dated 2020)
